# Reference: PMC11371738, “Development of an ic-CLEIA for precise detection of 3-CQA in herbs and patent medicines: ensuring quality control and therapeutic efficacy” (Frontiers in Nutrition, 2024)
# Experiments:
# anti-3-CQA mAb [1] = assay: mAb-based indirect competitive chemiluminescence enzyme immunoassay (ic-CLEIA); type: binding, mouse; conditions: for CR (cross-reactivity) = IC50 3-CQA / IC50 analogue x 100%: ic-CLEIA; for IC50: 3-CQA-OVA coating 2 μg/mL, mAb 1:8000, deionized water pH 7.0
# Protocol: To establish the optimal conditions for the ic-CLEIA, a checkerboard titration was employed. The protocols of the ic-CLEIA were performed as previously ([20]). A gradient concentration of 3-CQA-OVA (0.125, 0.5, 2.0, and 8.0 μg/mL; 100 μL/well) was diluted in PBS and added to a 96-well white microliter plate (Costar Inc., Cambridge, MA, United States), followed by incubation at 4°C overnight. After washing each well three times with PBST (PBS solution containing 0.05% Tween-20, pH 7.4), the plates were blocked with 5% skimmed milk powder (SMP) (Sigma, St Louis, MO, United States) in PBS (200 μL/well) at 37°C for 2 h. Subsequently, different concentrations of mAb (1:2000, 1:4000, 1:8000, 1:16000, 1:32000, 1:64000, and 1:128000; 100 μL/well) were added to different wells, followed by incubation at 4°C for 50 min. For ic-CLEIA standard curve, 3-CQA standard solutions in PBS (0.01, 0.025, 0.05, 0.1, 0.25, 0.5, 1, 2.5, 5, 10, 25, 50, and 100 ng/mL; 50 μL) and the diluted antibody in PBS (50 μL) were added to each well and incubated at 4°C for 50 min. After a washing step, goat anti-mouse IgG-horse radish peroxidase (HRP) (SinoBiological, Beijing, China) dissolved in PBS supplemented with 2% SMP was added at a 1:5000 dilution (100 μL/well), and the plates were incubated at 37°C for 50 min. Afterward, 100 μL of chemiluminescent substrate solution (Heliosense Biotechnology, Xiamen, China) was pipetted into each well, and the emitted photons were immediately read at 595 nm using a Tecan Infinite F200 reader (Mannedorf, Switzerland). To investigate the effects of different factors on the overall reaction system, different pH (6.5, 7.0, 7.4, and 8.0), methanol aqueous solution (5, 10, 30, and 50%; v/v), Tween-20 (0.01, 0.02, 0.04, 0.06, and 0.08%, v/v), sodium chloride solution (0.1 M, 0.2 M, and 0.4 M) were prepared and tested.
# All incubation steps were performed in the dark throughout the procedure. The competitive inhibition curves for 3-CQA were plotted using GraphPad Prism 8.0 (GraphPad Inc., San Diego, CA).
# To evaluate CR, the structural analogs of 3-CQA including 4-CQA, 5-CQA, 3,5-dicaffeoylquinic acid, 4,5-dicaffeoylquinic acid, 3,4-dicaffeoylquinic acid, and tea polyphenols (DESITE Biotech, Chengdu, China) were used in place of 3-CQA within the ic-CLEIA assay. The respective CR values of these analogs were determined using the following equation: […]
# anti-3-CQA mAb [2] = assay: indirect competitive ELISA (ic-ELISA); type: binding, mouse; conditions: same conditions as ic-CLEIA
# Protocol: The protocols of ic-ELISA are similar to the ic-CLEIA, 3-CQA-OVA antigen, anti-3-CQA mAb, and goat anti-mouse IgG-HRP were successively incubated under optimized conditions. 3-CQA standard solutions in PBS (1, 2, 4, 8, 16, 32, 64, 128, 256, and 512 ng/mL; 50 μL) and the diluted antibody in PBS (50 μL) were added to each well and incubated at 4°C for 50 min. Subsequent to four washes, 3, 3′, 5, 5′-tetramethylbenzidine (TMB, 100 μL/well) solution was added and incubated at 37°C for 10 min. The reaction was then terminated by adding 2 M H2SO4 (50 μL/well), and the absorbance was measured at the wavelength of 450 nm (OD450). The competitive inhibition curve was plotted using Lg[10*C3-CQA (ng/mL)] as the abscissa and B/B0 (B0 is the OD450 value without standard, and B is the OD450 value with standard present) as the ordinate.
Compound,CR (cross-reactivity) = IC50 3-CQA / IC50 analogue x 100% (anti-3-CQA mAb [1]),IC50 (anti-3-CQA mAb [1]; optimized conditions),IC20 (lower end of linear range) (anti-3-CQA mAb [1]; optimized conditions),IC80 (upper end of linear range) (anti-3-CQA mAb [1]; optimized conditions),calibration / linear / detection range (IC20-IC80) (anti-3-CQA mAb [1]; optimized conditions),"limit of detection (LOD, IC10) (anti-3-CQA mAb [1]; optimized conditions)",IC50 (anti-3-CQA mAb [2]),LOD (anti-3-CQA mAb [2]),linear / detection range (anti-3-CQA mAb [2])
"O=C(/C=C/c1ccc(O)c(O)c1)OC1CC(O)(C(=O)O)CC(O)C1OC(=O)/C=C/c1ccc(O)c(O)c1 (stereo not shown) [3,4-dicaffeoylquinic acid]",2.10%,0.14173 µg/mL,–,–,–,–,–,–,–
"O=C(/C=C/c1ccc(O)c(O)c1)OC1CC(O)(C(=O)O)CC(OC(=O)/C=C/c2ccc(O)c(O)c2)C1O (stereo not shown) [3,5-dicaffeoylquinic acid]",10.71%,0.02774 µg/mL,–,–,–,–,–,–,–
"O=C(C=Cc1ccc(O)c(O)c1)OC1CC(O)(C(=O)O)CC(O)C1O (stereo not shown) [3-CQA, 3-caffeoylquinic acid]",100.00%,0.00297 µg/mL,0.00064 µg/mL,0.01375 µg/mL,0.00064 to 0.01375 µg/mL,0.00039 µg/mL,0.03606 µg/mL,6.71 ng/mL,10.21 to 127.36 ng/mL

# Now from value to molecule, other results behind:
CR (cross-reactivity) = IC50 3-CQA / IC50 analogue x 100% (anti-3-CQA mAb [1]),IC50 (anti-3-CQA mAb [1]; optimized conditions),IC20 (lower end of linear range) (anti-3-CQA mAb [1]; optimized conditions),IC80 (upper end of linear range) (anti-3-CQA mAb [1]; optimized conditions),calibration / linear / detection range (IC20-IC80) (anti-3-CQA mAb [1]; optimized conditions),"limit of detection (LOD, IC10) (anti-3-CQA mAb [1]; optimized conditions)",IC50 (anti-3-CQA mAb [2]),Compound,LOD (anti-3-CQA mAb [2]),linear / detection range (anti-3-CQA mAb [2])
0.31%,0.97156 µg/mL,–,–,–,–,–,"O=C(/C=C/c1ccc(O)c(O)c1)OC1CC(O)(C(=O)O)CC(O)C1OC(=O)/C=C/c1ccc(O)c(O)c1 (stereo not shown) [4,5-dicaffeoylquinic acid]",–,–
0.62%,0.48062 µg/mL,–,–,–,–,–,"O=C(/C=C/c1ccc(O)c(O)c1)OC1C(O)CC(O)(C(=O)O)CC1O (stereo not shown) [4-CQA, 4-caffeoylquinic acid]",–,–
1.81%,0.16444 µg/mL,–,–,–,–,–,"O=C(/C=C/c1ccc(O)c(O)c1)OC1CC(O)(C(=O)O)CC(O)C1O (stereo not shown) [5-CQA, 5-caffeoylquinic acid]",–,–
